Experimental data: patent US6960559B1, “Neurite growth regulatory factors” (University of Zurich, priority 1988, dated 2005)
Where two headings read alike, the source gives them in different places. Each block holds one compound with its values, some of them ahead of it. Where a SMILES comes first, the peptide text is derived from it. The star is where a group is joined. Cbz = O=C(OCc1ccccc1)*

Experiments:
[1] = system: C6 plasma membrane associated metalloendoprotease; assay: Enzyme assay: cbz-FAF[125I]Y-NH2 degradation by C6 plasma membranes with protease blockers; type: biochemical, rat
Protocol: For most experiments, 70-80% confluent cell layers (1 cm^2 wells, 100 μl MEMα) or 2-5 μg C6 plasma membrane (100 μl MEMα) were used. […] If indicated, cell layers or plasma membrane suspensions were preincubated for 30 min with protease blockers or peptides. NEM or iodacetamide incubations of plasma membranes were performed at pH 8.5. The incubation was stopped by loading a 10 μl aliquot of the incubation medium on a thin layer chromatography plate (10 cm height, Kieselgel 60 F254, MERCK, Germany) and air dried. […] Plates were then air dried and exposed on Kodak X-OMAT films (NY, USA) with an intensifying screen. To identify the degradation products on thin-layer chromatography, we run reference peptides under the same conditions.
For the quantification of the activity, the reaction was stopped by addition of an equal volume of chloroform. […] Activity is expressed as % radioactivity contained in the aqueous phase. 100% is the sum of the radioactivity of both phases.

C6 glioblastoma cells = assay: cells; type: cell-based, rat; conditions: for IC50: 2 h
Protocol: Rat C6 glioblastoma cells (Benda et al., 1968, Science 161:370-371) were cultured in Dulbecco's modified Eagle's medium (DMEM) supplemented with 10% fetal calf serum (FCS), usually to maximally 70-80% confluency (Paganetti et al., 1988, J. Cell Biol. 107:2281-2291). All cell culture media were routinely supplemented with penicillin and streptomycin. Cells were harvested by a short trypsin treatment (0.1% in Ca^2+/Mg^2+-free [CMF] PBS/EDTA solution for 90 seconds) followed by addition of DMEM/10% FCS and centrifugation (600×g, 6 min). The cell pellet was rinsed with 5 ml DMEM/10% FCS and centrifuged. For cell spreading assays, cells were resuspended at 10^6/ml in defined serum-free medium (MEMα) supplemented with 0.2 μg/ml insulin, 0.5 μg/ml transferrin and 0.12 μg/ml bovine serum albumin (BSA). Protease blockers or peptides were added directly to the cell suspension from 10×solutions 10 min before plating.
Spinal cord myelin from young adult Lewis rats was purified on a discontinuous sucrose gradient (Colman et al., 1982, J. Cell Biol. 95:598-608; Schwab and Caroni, 1988, J. Neurosci. 8:2381-2393) and stored in 100 mM sucrose, 25 mM TRIS/HCl pH 7.4 at −80° C. up to 6 months. The myelin suspension ([…]) was incubated for 30 min on poly-D-lysine-coated wells (PLYS-wells). Unbound myelin membranes were removed by rinsing twice with CMF-Hank's and once with MEMα. Myelin-coated wells were used immediately for the spreading assay by adding 9'000 C6 cells per cm^2. Experiments were scored as described (Paganetti et al., 1988, J. Cell Biol. 107:2281-2291).

C6 cells = assay: C6 cell spreading on CNS myelin or PLYS with protease inhibitors; type: cell-based, rat; conditions: for Inhibition on CNS (%): C6 cells, spreading on PLYS minus spreading on CNS myelin; for Effect on C6 cell spreading on CNS myelin, in words: Section 9
Protocol: Rat C6, mouse NIH 3T3 and B16 cells were cultured in Dulbecco's modified Eagle's medium (DMEM) supplemented with 10% fetal calf serum (FCS), usually to maximally 70-80% confluency. Cells were harvested with a short trypsin treatment (0.1% in Ca^2+/Mg^2+-free Hank's medium for 90 seconds) stopped by addition of FCS in excess, collected by centrifugation. Cells were resuspended in either DMEM/FCS or defined serum-free medium (MEM) and used for experiments. Dissociated rat CNS glial cells were prepared starting from optic nerves of 6-7 days old Lewis rats as described in Section 6.1.1, supra and plated into poly-D-lysine (PLYS) coated wells (100 mm^2, 100 μl medium) at a density of 20,000 cells per well. The culture medium was an enriched L15 medium with 5% rat serum, penicillin and streptomycin. C6, 3T3 and B16 cells were added to 2 day old cultures at a concentration of 30,000 cells per well, incubated for two hours and fixed with warm 4% formalin in phosphate buffer. Inhibitory oligodendrocytes were identified by double labelling using the specific antibodies O1 and O4 (see Section 6.1.3, supra).
Myelin from rat spinal cord (CNS) or sciatic nerve (PNS) purified on a discontinuous sucrose gradient as described in Section 6.1.5., was dried overnight onto PLYS coated wells (20 μg protein/well of 100 mm^2 surface). Unbound membranes were removed by three washes with Ca^2+/Mg^2+-free Hank's solution. Myelin coated wells were immediately used in substrate testing assays by the addition of 9,000 cells (C6, 3T3, or B16) per cm^2. Alternatively, we used extracted CNS myelin protein, or SDS-PAGE purified 35 and 250 kD inhibitory proteins reconstituted in liposomes (see Section 7.1.5, supra). Experiments were scored at different time points using a phase contrast microscope equipped with a photocamera. Quantifications were done using a surface integration program; three arbitrary fields were photographed for each well at a magnitude of 80×, at least 25 cells per picture were measured. Each point represents the mean of at least 3 wells±SEM. Results are expressed as μ^2 of projected cell surface, or as degree, which was calculated by subtracting from the projected surface value of a spreading cell, the surface value of a completely spheric cell.

[2] = C6 cell spreading on CNS myelin, read-out: IC50 on CNS myelin

Compound: C[C@H](CS)C(=O)N1CCC[C@H]1C(=O)O [Captopril]
- Effect on cbz-FAF[^125I]Y-NH2 degradation by C6 plasma membranes, in words [1]: had no effect

Compound: C[C@H](NC(=O)[C@@H](N)Cc1ccccc1)C(=O)N[C@@H](Cc1ccccc1)C(=O)N[C@@H](Cc1ccc(O)cc1)C(N)=O [FAFY-NH2] (H-FAFY-NH2; N-terminus assumed)
- IC50 (C6 glioblastoma cells; [2]): 300 µM

Compound: CCN1C(=O)C=CC1=O [N-ethylmaleimide]
- Effect on cbz-FAF[^125I]Y-NH2 degradation by C6 plasma membranes, in words [1]: had no effect

Compound: O=S(=O)(F)Cc1ccccc1 [PMSF, Phenyl methyl sulfonyl fluoride]
- Inhibition on CNS (%) (C6 cells): 6%
- Effect on cbz-FAF[^125I]Y-NH2 degradation by C6 plasma membranes, in words [1]: had no effect

Compound: C[C@H](NC(=O)OCc1ccccc1)C(=O)N[C@@H](Cc1ccccc1)C(N)=O [cbz-AF-NH2, carbobenzoxy-alanine-phenylalanine-amide]
- IC50 (C6 glioblastoma cells; [2]): 600 µM

Compound: C[C@H](NC(=O)OCc1ccccc1)C(=O)N[C@@H](Cc1ccccc1)C(=O)N[C@@H](Cc1ccc(O)cc1)C(N)=O [cbz-AFY-NH2]
- Effect on C6 cell spreading on CNS myelin, in words (C6 glioblastoma cells; Section 11): strong inhibition of cell spreading

Compound: C[C@H](NC(=O)[C@H](Cc1ccccc1)NC(=O)OCc1ccccc1)C(N)=O [cbz-FA-NH2]
- IC50 (C6 glioblastoma cells; [2]): 600 µM

Compound: NC(=O)CI [iodacetamide]
- Effect on cbz-FAF[^125I]Y-NH2 degradation by C6 plasma membranes, in words [1]: had no effect

More lines, main results first:

- Effect on cbz-FAF[^125I]Y-NH2 degradation by C6 plasma membranes, in words [1]: did not affect overall activity
Compound: CC(C)C[C@H](NC(=O)[C@@H](O)[C@H](N)Cc1ccccc1)C(=O)O [bestatine]
- Inhibition on CNS (%) (C6 cells): 0%
- Effect on C6 cell spreading on CNS myelin, in words (C6 cells): did not impair C6 cell spreading
- Effect on formation of Y-NH2 from cbz-FAF[^125I]Y-NH2, in words [1]: specifically inhibited the formation of Y-NH2

- IC50 (C6 glioblastoma cells): 3 µM
Compound: C[C@H](NC(=O)[C@H](Cc1ccccc1)NC(=O)OCc1ccccc1)C(=O)N[C@@H](Cc1ccccc1)C(=O)N[C@@H](Cc1ccc(O)cc1)C(N)=O [cbz-FAFY-NH2, carbobenzoxy-Phe-Ala-Phe-Tyr-amide] (Cbz-FAFY-NH2)
- Effect on C6 cell spreading on CNS myelin, in words (C6 glioblastoma cells; Section 11): clearly impaired C6 cell spreading on CNS myelin
- Effect on C6 cell spreading on PLYS-coated wells, in words (C6 glioblastoma cells; Section 11): had no effect on PLYS-coated wells

- IC50 (C6 glioblastoma cells): 5 µM
Compound: COC(=O)[C@H](Cc1ccccc1)NC(=O)[C@H](Cc1ccccc1)NC(=O)CNC(=O)OCc1ccccc1 [cbz-GFF-OCH3] (Cbz-Gly-Phe-Phe-OMe)
- Effect on C6 cell spreading on CNS myelin, in words (C6 glioblastoma cells; Section 11): strong inhibition of cell spreading

- IC50 (C6 glioblastoma cells): 300 µM
Compound: O=C(CNC(=O)OCc1ccccc1)N[C@@H](Cc1ccccc1)C(=O)N[C@@H](Cc1ccccc1)C(=O)O [cbz-GFF] (Cbz-Gly-Phe-Phe-OH; C-terminus assumed)

- IC50 (C6 glioblastoma cells): 5 µM
Compound: CC(C)C[C@H](NC(=O)CNC(=O)OCc1ccccc1)C(=O)N[C@@H](Cc1ccccc1)C(N)=O [cbz-GLF-NH2] (Cbz-Gly-Leu-Phe-NH2)

- Effect on cbz-FAF[^125I]Y-NH2 degradation by C6 plasma membranes, in words [1]: had no effect
Compound: CC(C)C[C@H](NP(=O)(O)O[C@@H]1O[C@@H](C)[C@H](O)[C@@H](O)[C@H]1O)C(=O)N[C@@H](Cc1c[nH]c2ccccc12)C(=O)O [phosphoramidon]
- Inhibition on CNS (%) (C6 cells): 9%
- Effect on C6 cell spreading on CNS myelin, in words (C6 cells): did not impair C6 cell spreading

- Effect on cbz-FAF[^125I]Y-NH2 degradation by C6 plasma membranes, in words [1]: had no effect
Compound: Carboxymethyl-phe-leu [cm-phe-leu]
- Inhibition on CNS (%) (C6 cells): 3%
- Effect on C6 cell spreading on CNS myelin, in words (C6 cells): did not inhibit C6 cell spreading
